One test relates to MSA patients. Put plainly: Placebo-controlled cross-over add-on study in MSA patients (UPDRS). In kind it is in vivo. As to conditions: add-on 2.5 to 20 mg b.i.d. versus placebo. An excerpt:
A typical study to investigate the efficacy of the compounds according to the invention in MSA patients encompasses 30 patients of either sex with a symptom duration of at least 5 years and a significant reduction of central dopamine receptors in positron emission tomography (PET) scan. The study design is similar to that described above for Parkinson's disease. Trans-4-[4-(3-chloro-4-methoxybenzylamino)-benzothieno-[2,3-d]pyrimidin-2-yl]cyclohexanecarboxylic acid sodium or ethanolamine salt or placebo is titrated as "add on" to the conventional treatment (dose range 2.5 to 20 mg b.i.d.). Before the start of titration and at the end of the treatment period a complete UPDRS assessment is performed in each patient (primary outcome measure). After a 2-week wash-out period the two study arms are crossed over and the protocol is repeated.

Test [1] relates to advanced idiopathic Parkinson's disease complicated by "peak-dose" dyskinesia. Put plainly: Double-blind cross-over study, peak-dose dyskinesia after l-dopa challenge in advanced idiopathic Parkinson's disease. To be noted: first hour in the "on" state after l-dopa challenge; add-on 2.5 to 10 mg b.i.d. versus placebo. Type of test: in vivo, patients. An excerpt: A typical study to investigate the efficacy of the compounds according to the invention for adverse effects in Parkinson's disease is described in the following. 40 patients of either sex with advanced idiopathic Parkinson's disease complicated by "peak-dose" dyskinesia participate in a double-blind, cross-over study. The main inclusion criteria are Hoehn & Yahr stage ≥ 2.5 (lit.: Hoehn H.M. et al, Neurology 1967; 17: 427-442), aged 40-75 years, symptom duration of at least 5 years, and a I-dopa treatment duration of at least 3 years. trans-4-[4-(3-chloro-4-methoxybenzylamino)-benzothieno-[2,3-d]pyrimidin-2-yl]cyclohexanecarboxylic acid sodium or ethanolamine salt or placebo is administered as "add on" to the conventional Parkinson treatment; which is maintained unchanged during the whole study. The dose of blinded medication is titrated over a period of 3 weeks in a range from 2.5 to 10 mg b.i.d. Then the medication is kept constant for 1 week. Before the start of titration and at the end of the treatment period a I-dopa challenge is performed according to P. Damier et al. (Movement Disord,1999, 14 (Suppl. 1), 54-59) using video recording. The main outcome measure of the protocol is the mean score for dyskinesia during the first hour in the "on" state after I-dopa challenge. […]

The subject of another test is tardive dyskinesia. Put plainly: Double-blind cross-over add-on study in tardive dyskinesia (AIMS). In kind it is in vivo, schizophrenic (DSM-III-R) inpatients. To be noted: add-on to antipsychotic treatment, 2.5 to 20 mg b.i.d., compared with placebo period. The text has this: Tardive dyskinesia is a common adverse effect of long-term treatment with neuroleptics. A typical study to investigate the efficacy of the compounds according to the invention in tardive dyskinesia is described in the following. 32 schizophrenic (DSM-III-R) inpatients aged 25 - 60 years on long-term stable antipsychotic treatment (duration of at least 5 years) entered the study. Trans-4-[4-(3-chloro-4-methoxybenzylamino)-benzothieno-[2,3-d]pyrimidin-2-yl]cyclohexanecarboxylic acid sodium or ethanolamine salt or placebo is administered as "add on" to the antipsychotic treatment, which is kept constant during the whole study. The dose of blinded medication is titrated over a period of 3 weeks in a range from 2.5 to 20 mg b.i.d. Then the medication is maintained under double-blind conditions for 2 weeks. After a 2-week wash-out period, the test drugs are crossed over. Assessments of tardive dyskinesia by means of the Abnormal Involuntary Movement Scale (AIMS, see obove) and of Parkinsonian extrapyramidal side effects (UPDRS, see above) are made pretreatment and posttreatment.

Test [2] deals with idiopathic Parkinson's disease. Put plainly: Double-blind add-on study in idiopathic Parkinson's disease (UPDRS). In kind it is in vivo, patients. As to conditions: add-on 2.5 to 10 mg b.i.d. versus placebo. The text has this:
A typical study to investigate the efficacy of the compounds according to the invention in the treatment of idiopathic Parkinson's disease is described in the following. 180 patients of either sex with idiopathic Parkinson's disease participate in a double-blind study. The main inclusion criteria are Hoehn & Yahr stage ≥ 2.0 (Hoehn H.M. et al, Neurology 1967; 17: 427-442), aged 50-80 years, symptom duration of at least 5 years. Trans-4-[4-(3-chloro-4-methoxybenzylamino)-benzothieno-[2,3-d]pyrimidin-2-yl]cyclohexanecarboxylic acid or placebo is administered as "add on" to the conventional Parkinson treatment, which is maintained unchanged during the whole study. The dose of blinded medication is titrated over a period of 4 weeks in a range from 2.5 to 10 mg b.i.d. Then the medication is kept constant for 1 week. Before the start of titration, at the end of the treatment period and 2 weeks after the end of the tiration period an assessment is performed in each patients using the unified Parkinson's disease rating scale (UPDRS part I to V according to S. Fahn et al., in: Recent developments in Parkinson's disease, vol. 2, MacMillan health information 1987, 153-163). […]

Counter-ions that a name gives are not always drawn.

Take `COc1ccc(CNc2nc([C@H]3CC[C@H](C(=O)O)CC3)nc3sc4ccccc4c23)cc1Cl` [trans-4-[4-(3-chloro-4-methoxybenzylamino)-benzothieno-[2,3-d]pyrimidin-2-yl]cyclohexanecarboxylic acid sodium or ethanolamine salt]: in the test on MSA patients, the UPDRS result is “significant clinical improvement”. In test [1], the mean dyskinesia scores entry is listed as “significant clinical improvement”. Also, the AIMS scores entry in the test with tardive dyskinesia is on record as “significantly lower than during placebo period”. Further, in test [2], the UPDRS scores result is listed as “significant clinical improvement”.

The values above are taken from patent publication EP1543832A2, “Use of trans-4[4-(3-chloro-4-methoxy-benzylamino) benzothieno[2,3-d]pyrimidin-2-yl]-cyclohexanecarboxylic acid in the treatment of extrapyramidal movement disorders” (MERCK PATENT GmbH, priority 2003, dated 2005).
